Test results: the supplement of paper PMC10733146

Legend:
Assay in all cases: viability relative to DMSO control (fraction); higher = less drug effect (more viable cells)
Details in all cases: 48 h
Pentostatin = compound: OC[C@H]1O[C@@H](n2cnc3c2N=CNC[C@H]3O)C[C@@H]1O [Pentostatin]
Method in brief: (§1)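 Viability was quantified by CellTiter-Glo luminescence and related to the median of 16 inner DMSO wells. Before that, primary mononuclear tumour cells, fresh or cryopreserved and Ficoll-isolated from blood or bone marrow or prepared from processed lymph node, were plated at 4 × 10^4 cells per well in 384-well plates containing pre-plated compounds at five concentrations, one well each. Plates were incubated in RPMI-1640 with penicillin/streptomycin, L-glutamine and human serum at 37 °C and 5% CO2 for 48 h.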

AG-221 (Enasidinib) = compound: CC(C)(O)CNc1nc(Nc2ccnc(C(F)(F)F)c2)nc(-c2cccc(C(F)(F)F)n2)n1 [AG-221 (Enasidinib)]
Method in brief: as §1

BEZ235 = compound: Cn1c(=O)n(-c2ccc(C(C)(C)C#N)cc2)c2c3cc(-c4cnc5ccccc5c4)ccc3ncc21 [BEZ235]
Method in brief: as §1

Ribociclib = compound: CN(C)C(=O)c1cc2cnc(Nc3ccc(N4CCNCC4)cn3)nc2n1C1CCCC1 [Ribociclib]
Method in brief: as §1

EPZ-5676 = compound: CC(C)N(C[C@H]1O[C@@H](n2cnc3c(N)ncnc32)[C@H](O)[C@@H]1O)[C@H]1C[C@@H](CCc2nc3cc(C(C)(C)C)ccc3[nH]2)C1 [EPZ-5676]
Method in brief: as §1

[1] = compound: OCc1ccc(-c2ccc(-c3ccc(CO)s3)o2)s1
Method in brief: as §1

Bortezomib = compound: CC(C)C[C@H](NC(=O)[C@H](Cc1ccccc1)NC(=O)c1cnccn1)B(O)O [Bortezomib]
Method in brief: as §1

Vemurafenib = compound: CCCS(=O)(=O)Nc1ccc(F)c(C(=O)c2c[nH]c3ncc(-c4ccc(Cl)cc4)cc23)c1F [Vemurafenib]
Method in brief: as §1

8-Azaguanin = compound: Nc1nc2n[nH]nc2c(=O)[nH]1 [8-Azaguanin]
Method in brief: as §1

MLN-120B = compound: COc1c(Cl)cc2c([nH]c3cnccc32)c1NC(=O)c1cccnc1C [MLN-120B]
Method in brief: as §1

Iniparib = compound: NC(=O)c1ccc(I)c([N+](=O)[O-])c1 [Iniparib]
Method in brief: as §1

Vorinostat = compound: O=C(CCCCCCC(=O)Nc1ccccc1)NO [Vorinostat]
Method in brief: as §1

Panobinostat = compound: Cc1[nH]c2ccccc2c1CCNCc1ccc(/C=C/C(=O)NO)cc1 [Panobinostat]
Method in brief: as §1

BI6727 = compound: CC[C@@H]1C(=O)N(C)c2cnc(Nc3ccc(C(=O)N[C@H]4CC[C@H](N5CCN(CC6CC6)CC5)CC4)cc3OC)nc2N1C(C)C [BI6727]
Method in brief: as §1

Nelarabine = compound: COc1nc(N)nc2c1ncn2[C@@H]1O[C@H](CO)[C@@H](O)[C@@H]1O [Nelarabine]
Method in brief: as §1

primary CLL patient cells (S043)
viability (Pentostatin; 0.03 µM): 0.974 | viability (Pentostatin; 0.15 µM): 1.01 | viability (Pentostatin; 0.75 µM): 0.969 | viability (Pentostatin; 3.75 µM): 0.95 | viability (Pentostatin; 18.76 µM): 0.86 | viability (AG-221 (Enasidinib); 0.024 µM): 0.871 | viability (AG-221 (Enasidinib); 0.12 µM): 0.86 | viability (AG-221 (Enasidinib); 0.6 µM): 0.91 | viability (AG-221 (Enasidinib); 3 µM): 0.92 | viability (AG-221 (Enasidinib); 15 µM): 0.816 | viability (BEZ235; 0.024 µM): 1 | viability (BEZ235; 0.12 µM): 1.01 | viability (BEZ235; 0.6 µM): 0.985 | viability (BEZ235; 3 µM): 1.03 | viability (BEZ235; 15 µM): 0.594 | viability (Ribociclib; 0.024 µM): 0.904 | viability (Ribociclib; 0.12 µM): 1.1 | viability (Ribociclib; 0.6 µM): 0.995 | viability (Ribociclib; 3 µM): 0.933 | viability (Ribociclib; 15 µM): 0.771 | viability (EPZ-5676; 0.0032 µM): 1.06 | viability (EPZ-5676; 0.016 µM): 1.28 | viability (EPZ-5676; 0.08 µM): 1.13 | viability (EPZ-5676; 0.4 µM): 1.02 | viability (EPZ-5676; 2 µM): 0.951 | viability ([1]; 0.024 µM): 0.886 | viability ([1]; 0.12 µM): 0.841 | viability ([1]; 0.6 µM): 0.766 | viability ([1]; 3 µM): 0.752 | viability ([1]; 15 µM): 0.458 | viability (Bortezomib; 0.008 µM): 1.25 | viability (Bortezomib; 0.04 µM): 0.894 | viability (Bortezomib; 0.2 µM): 1.27 | viability (Bortezomib; 1 µM): 0.899 | viability (Bortezomib; 5 µM): 1.23 | viability (Vemurafenib; 0.024 µM): 0.997 | viability (Vemurafenib; 0.12 µM): 0.977 | viability (Vemurafenib; 0.6 µM): 1.03 | viability (Vemurafenib; 3 µM): 0.969 | viability (Vemurafenib; 15 µM): 1.07 | viability (8-Azaguanin; 0.032 µM): 1.14 | viability (8-Azaguanin; 0.16 µM): 1.14 | viability (8-Azaguanin; 0.8 µM): 0.971 | viability (8-Azaguanin; 4 µM): 0.722 | viability (8-Azaguanin; 20 µM): 0.49 | viability (MLN-120B; 0.024 µM): 0.817 | viability (MLN-120B; 0.12 µM): 0.838 | viability (MLN-120B; 0.6 µM): 0.837 | viability (MLN-120B; 3 µM): 0.827 | viability (MLN-120B; 15 µM): 0.797 | viability (Iniparib; 0.024 µM): 1.24 | viability (Iniparib; 0.12 µM): 1.21 | viability (Iniparib; 0.6 µM): 0.999 | viability (Iniparib; 3 µM): 1.02 | viability (Iniparib; 15 µM): 0.86 | viability (Vorinostat; 0.016 µM): 1.07 | viability (Vorinostat; 0.08 µM): 0.958 | viability (Vorinostat; 0.4 µM): 0.905 | viability (Vorinostat; 2 µM): 0.62 | viability (Vorinostat; 10 µM): 0.116 | viability (Panobinostat; 0.00064 µM): 0.921 | viability (Panobinostat; 0.0032 µM): 0.809 | viability (Panobinostat; 0.016 µM): 0.398 | viability (Panobinostat; 0.08 µM): 0.0971 | viability (Panobinostat; 0.4 µM): 0.0796 | viability (BI6727; 0.024 µM): 0.861 | viability (BI6727; 0.12 µM): 0.872 | viability (BI6727; 0.6 µM): 0.796 | viability (BI6727; 3 µM): 0.742 | viability (BI6727; 15 µM): 0.51 | viability (Nelarabine; 0.024 µM): 1.02 | viability (Nelarabine; 0.12 µM): 1.09 | viability (Nelarabine; 0.6 µM): 0.98 | viability (Nelarabine; 3 µM): 1.01 | viability (Nelarabine; 15 µM): 0.903

primary MCL patient cells (S053)
viability (Pentostatin; 0.03 µM): 0.873 | viability (Pentostatin; 0.15 µM): 0.831 | viability (Pentostatin; 0.75 µM): 0.81 | viability (Pentostatin; 3.75 µM): 0.757 | viability (Pentostatin; 18.76 µM): 0.675 | viability (AG-221 (Enasidinib); 0.024 µM): 0.982 | viability (AG-221 (Enasidinib); 0.12 µM): 0.769 | viability (AG-221 (Enasidinib); 0.6 µM): 0.943 | viability (AG-221 (Enasidinib); 3 µM): 0.782 | viability (AG-221 (Enasidinib); 15 µM): 0.958 | viability (BEZ235; 0.024 µM): 0.984 | viability (BEZ235; 0.12 µM): 1.17 | viability (BEZ235; 0.6 µM): 0.95 | viability (BEZ235; 3 µM): 1.05 | viability (BEZ235; 15 µM): 0.549 | viability (Ribociclib; 0.024 µM): 0.881 | viability (Ribociclib; 0.12 µM): 0.882 | viability (Ribociclib; 0.6 µM): 0.826 | viability (Ribociclib; 3 µM): 0.678 | viability (Ribociclib; 15 µM): 0.425 | viability (EPZ-5676; 0.0032 µM): 0.942 | viability (EPZ-5676; 0.016 µM): 1.1 | viability (EPZ-5676; 0.08 µM): 0.901 | viability (EPZ-5676; 0.4 µM): 0.946 | viability (EPZ-5676; 2 µM): 1.04 | viability ([1]; 0.024 µM): 0.815 | viability ([1]; 0.12 µM): 0.869 | viability ([1]; 0.6 µM): 0.663 | viability ([1]; 3 µM): 0.511 | viability ([1]; 15 µM): 0.168 | viability (Bortezomib; 0.008 µM): 0.952 | viability (Bortezomib; 0.04 µM): 1.06 | viability (Bortezomib; 0.2 µM): 0.997 | viability (Bortezomib; 1 µM): 1.01 | viability (Bortezomib; 5 µM): 0.931 | viability (Vemurafenib; 0.024 µM): 0.936 | viability (Vemurafenib; 0.12 µM): 0.959 | viability (Vemurafenib; 0.6 µM): 0.996 | viability (Vemurafenib; 3 µM): 1.04 | viability (Vemurafenib; 15 µM): 1.07 | viability (8-Azaguanin; 0.032 µM): 0.937 | viability (8-Azaguanin; 0.16 µM): 0.936 | viability (8-Azaguanin; 0.8 µM): 0.559 | viability (8-Azaguanin; 4 µM): 0.411 | viability (8-Azaguanin; 20 µM): 0.313 | viability (MLN-120B; 0.024 µM): 0.91 | viability (MLN-120B; 0.12 µM): 0.892 | viability (MLN-120B; 0.6 µM): 0.935 | viability (MLN-120B; 3 µM): 0.842 | viability (MLN-120B; 15 µM): 0.76 | viability (Iniparib; 0.024 µM): 1.18 | viability (Iniparib; 0.12 µM): 1.09 | viability (Iniparib; 0.6 µM): 1.03 | viability (Iniparib; 3 µM): 1.02 | viability (Iniparib; 15 µM): 0.872 | viability (Vorinostat; 0.016 µM): 1.02 | viability (Vorinostat; 0.08 µM): 0.966 | viability (Vorinostat; 0.4 µM): 0.617 | viability (Vorinostat; 2 µM): 0.149 | viability (Vorinostat; 10 µM): 0.0944 | viability (Panobinostat; 0.00064 µM): 0.782 | viability (Panobinostat; 0.0032 µM): 0.476 | viability (Panobinostat; 0.016 µM): 0.117 | viability (Panobinostat; 0.08 µM): 0.0942 | viability (Panobinostat; 0.4 µM): 0.0907 | viability (BI6727; 0.024 µM): 0.894 | viability (BI6727; 0.12 µM): 0.898 | viability (BI6727; 0.6 µM): 0.726 | viability (BI6727; 3 µM): 0.572 | viability (BI6727; 15 µM): 0.481 | viability (Nelarabine; 0.024 µM): 1.02 | viability (Nelarabine; 0.12 µM): 1.04 | viability (Nelarabine; 0.6 µM): 0.954 | viability (Nelarabine; 3 µM): 0.983 | viability (Nelarabine; 15 µM): 0.767
